Results on two compounds are retold here after doi:10.1101/2022.12.25.521902v1 (biorxiv, 2022).

The experiment relates to MsC17OMT (MsOMT1). The experiment can be described thus: LC-MS/MS methyltransferase assay, Michaelis-Menten fit. In kind it is biochemical, Mitragyna speciosa. The note with it: 100 μM SAM, Tris-HCl pH 7.5, 30 °C, 2 min.

One may read the Km as the substrate concentration at which the rate is half of its maximum. Take `C/C=C1/CN2CCc3c([nH]c4ccccc34)[C@@H]2C[C@@H]1/C(=C/O)C(=O)OC` [compound 3, 19E-geissoschizine]: the Km was 5.3 µM. For the compound `C/C=C1\CN2CCc3c([nH]c4ccccc34)[C@@H]2C[C@@H]1/C(=C/O)C(=O)OC` [compound 4, 19Z-geissoschizine], the Michaelis constant (Km) was found to be 12.8 µM.
